Patent US20060252807A1, “Novel ortho-terphenyl inhibitors of p38 kinase and methods of treating inflammatory disorders” (Kalypsys, Inc., priority 2005, published 2006)

The compounds below were run against T1, active p38 alpha enzyme (Upstate Biotechnology) (Homo sapiens, UniProt Q16539) (assay: p38α biochemical assay (ATP turnover, luminescent detection, Cambrex PKlight)). Conditions: p38α biochemical assay, Table 1 Biological Activity.
T1 construct: purchased Upstate Biotechnology
Method: The p38α biochemical assay employed is based on measurement of total ATP turnover following enzyme incubation with substrate in the presence of ATP with the use of a luminescent detection reagent (Cambrex PKlight). The assays were performed in 1536-well white opaque plates.
The final volume was 7.5005 μL as prepared prepared from the addition of 5 ul of kinase reaction (p38 alpah+MapkapK2+ATP) with 0.0005 μL compound dissolved in DMSO, and 2.5 ul of the detection reagent. Assay buffer contains the following reagents to give final concentration in the assay: 200 mM Tris, 100 mM MgCl2, 1.5 mM EGTA, 4 mM CaCl2, 20 mM MOPS, 1 mM EDTA, 1% glycerol, 0.1% B-Mecaptoethanol, and 1 mg/ml BSA. Test compounds are pinned using proprietary pintool technology (Kalypsys, Inc) and delivered as […] amounts into the 5 ul mixture of active p38 alpha enzyme (Upstate Biotechnology) and MapkapK2 (Upstate Biotechnology) whole protein as a substrate for phosphorylation in the presence of 1.4 uM final concentration ATP. Reactions are incubated at 30C for 2 hours and detection reagent is added in 2.5 ul/well amounts. Assay is read using a Perkin Elmer Viewlux.

T1 sequence (Q16539 whole entry): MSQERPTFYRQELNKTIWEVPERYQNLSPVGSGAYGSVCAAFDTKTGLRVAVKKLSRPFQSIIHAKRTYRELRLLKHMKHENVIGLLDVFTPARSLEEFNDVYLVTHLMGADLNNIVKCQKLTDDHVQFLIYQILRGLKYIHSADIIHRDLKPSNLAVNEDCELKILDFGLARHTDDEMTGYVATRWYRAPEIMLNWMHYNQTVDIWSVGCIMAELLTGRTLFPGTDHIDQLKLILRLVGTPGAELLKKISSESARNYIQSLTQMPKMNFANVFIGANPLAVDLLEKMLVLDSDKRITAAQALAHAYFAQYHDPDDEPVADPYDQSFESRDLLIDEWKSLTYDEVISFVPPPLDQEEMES

SMILES	IC50 [nM]
C#CCNC(=O)c1csc(-c2c(-c3ccc(F)cc3)ncn2C2CCN(Cc3ccccc3)CC2)n1 [Example 89, 2-|3-(1-Benzyl-piperidin-4-yl)-5-(4-fluoro-phenyl)-3H-imidazol-4-yl|-thiazole-4-carboxylic acid prop-2-ynylamide]	> 1000
CC(C)NC(=O)c1csc(-c2c(-c3ccc(F)cc3)ncn2C2CCN(C(=O)OC(C)(C)C)CC2)n1 [Example 90, 4-|4-(4-Fluoro-phenyl)-5-(4-isopropylcarbamoyl-thiazol-2-yl)-imidazol-1-yl|-piperidine-1-carboxylic acid tert-butyl ester]	> 1000
O=C(O)c1csc(-c2c(-c3ccc(F)cc3)ncn2C2CCNCC2)n1 [Example 95, 2-|5-(4-Fluoro-phenyl)-3-piperidin-4-yl-3H-imidazol-4-yl|-thiazole-4-carboxylic acid]	> 1000
CC(C)NC(=O)c1csc(-c2c(-c3ccc(F)cc3)nc3ncccn23)n1 [Example 97, 2-|2-(4-Fluoro-phenyl)-imidazo|1,2-a|pyrimidin-3-yl|-thiazole-4-carboxylic acid isopropylamide]	> 1000
CC(C)NC(=O)c1csc(-c2oc(CN)nc2-c2ccc(F)cc2)n1 [Example 98]	> 1000
CC(C)NC(=O)c1csc(-c2oc(CNC(=O)C=O)nc2-c2ccc(F)cc2)n1 [Example 99]	> 1000
CC(C)NC(=O)c1csc(-c2oc(CNC(=O)C3=CCCC3)nc2-c2ccc(F)cc2)n1 [Example 107]	> 1000
CC(C)NC(=O)c1csc(-c2oc(CNC(=O)c3ccccc3)nc2-c2ccc(F)cc2)n1 [Example 111]	> 1000
CC(C)NC(=O)c1csc(-c2oc(CNC(=O)c3ccccn3)nc2-c2ccc(F)cc2)n1 [Example 114]	> 1000
CC(C)NC(=O)c1csc(-c2oc(CNC(=O)c3cn(C)cn3)nc2-c2ccc(F)cc2)n1 [Example 117]	> 1000
Cc1cccc(C(=O)NCc2nc(-c3ccc(F)cc3)c(-c3nc(C(=O)NC(C)C)cs3)o2)c1 [Example 121]	> 1000
Cc1ccccc1C(=O)NCc1nc(-c2ccc(F)cc2)c(-c2nc(C(=O)NC(C)C)cs2)o1 [Example 122]	> 1000
Cc1ccc(C(=O)NCc2nc(-c3ccc(F)cc3)c(-c3nc(C(=O)NC(C)C)cs3)o2)cc1 [Example 123]	> 1000
CC(C)NC(=O)c1csc(-c2oc(CNC(=O)c3ccccc3O)nc2-c2ccc(F)cc2)n1 [Example 125]	> 1000
CC(C)NC(=O)c1csc(-c2oc(CNC(=O)c3ccc(F)cc3)nc2-c2ccc(F)cc2)n1 [Example 126]	> 1000
CC(C)NC(=O)c1csc(-c2oc(CNC(=O)c3cccc(F)c3)nc2-c2ccc(F)cc2)n1 [Example 127]	> 1000
CC(C)NC(=O)c1csc(-c2oc(CNC(=O)c3cccc(C#N)c3)nc2-c2ccc(F)cc2)n1 [Example 130]	≤ 1000
CC(C)NC(=O)c1csc(-c2oc(CNC(=O)/C=C/c3ccccc3)nc2-c2ccc(F)cc2)n1 [Example 131]	≤ 1000
CC(C)NC(=O)c1csc(-c2oc(CNC(=O)c3ccccc3C=O)nc2-c2ccc(F)cc2)n1 [Example 132]	> 1000
CC(C)NC(=O)c1csc(-c2oc(CNC(=O)c3ccc(C=O)cc3)nc2-c2ccc(F)cc2)n1 [Example 133]	≤ 1000

SMILES	IC50 [nM]
Cc1ccc(C(=O)NCc2nc(-c3ccc(F)cc3)c(-c3nc(C(=O)NC(C)C)cs3)o2)c(C)c1 [Example 134]	> 1000
Cc1ccccc1CC(=O)NCc1nc(-c2ccc(F)cc2)c(-c2nc(C(=O)NC(C)C)cs2)o1 [Example 135]	> 1000
Cc1cccc(C(=O)NCc2nc(-c3ccc(F)cc3)c(-c3nc(C(=O)NC(C)C)cs3)o2)c1C [Example 136]	> 1000
Cc1ccc(C)c(C(=O)NCc2nc(-c3ccc(F)cc3)c(-c3nc(C(=O)NC(C)C)cs3)o2)c1 [Example 137]	> 1000
Cc1cc(C)cc(C(=O)NCc2nc(-c3ccc(F)cc3)c(-c3nc(C(=O)NC(C)C)cs3)o2)c1 [Example 138]	> 1000
Cc1ccc(C(=O)NCc2nc(-c3ccc(F)cc3)c(-c3nc(C(=O)NC(C)C)cs3)o2)cc1C [Example 139]	> 1000
CCc1ccc(C(=O)NCc2nc(-c3ccc(F)cc3)c(-c3nc(C(=O)NC(C)C)cs3)o2)cc1 [Example 140]	> 1000
COc1ccc(C(=O)NCc2nc(-c3ccc(F)cc3)c(-c3nc(C(=O)NC(C)C)cs3)o2)cc1 [Example 141]	> 1000
Cc1cccc(C(=O)NCc2nc(-c3ccc(F)cc3)c(-c3nc(C(=O)NC(C)C)cs3)o2)c1O [Example 142]	> 1000
CC(C)NC(=O)c1csc(-c2oc(CNC(=O)Cc3ccccc3O)nc2-c2ccc(F)cc2)n1 [Example 143]	≤ 1000
CC(C)NC(=O)c1csc(-c2oc(CNC(=O)Cc3cccc(O)c3)nc2-c2ccc(F)cc2)n1 [Example 144]	≤ 1000
Cc1ccc(O)c(C(=O)NCc2nc(-c3ccc(F)cc3)c(-c3nc(C(=O)NC(C)C)cs3)o2)c1 [Example 145]	> 1000
CC(C)NC(=O)c1csc(-c2oc(CNC(=O)c3cc(O)ccc3O)nc2-c2ccc(F)cc2)n1 [Example 146]	≤ 1000
CC(C)NC(=O)c1csc(-c2oc(CNC(=O)c3cccc(O)c3O)nc2-c2ccc(F)cc2)n1 [Example 147]	≤ 1000
CC(C)NC(=O)c1csc(-c2oc(CNC(=O)c3ccc(O)cc3O)nc2-c2ccc(F)cc2)n1 [Example 148]	≤ 1000
Cc1ccc(C(=O)NCc2nc(-c3ccc(F)cc3)c(-c3nc(C(=O)NC(C)C)cs3)o2)cc1F [Example 149]	> 1000
Cc1ccc(F)cc1C(=O)NCc1nc(-c2ccc(F)cc2)c(-c2nc(C(=O)NC(C)C)cs2)o1 [Example 150]	≤ 1000
CC(C)NC(=O)c1csc(-c2oc(CNC(=O)c3ccccc3Cl)nc2-c2ccc(F)cc2)n1 [Example 151]	≤ 1000
CC(C)NC(=O)c1csc(-c2oc(CNC(=O)c3ccc(Cl)nc3)nc2-c2ccc(F)cc2)n1 [Example 152]	≤ 1000

Results, then the compound that gave them:

IC50 [nM]	SMILES
≤ 1000	C#CCNC(=O)c1csc(-c2c(-c3ccc(F)cc3)ncn2C2CCNCC2)n1 [Example 92, 2-|5-(4-Fluoro-phenyl)-3-piperidin-4-yl-3H-imidazol-4-yl|-thiazole-4-carboxylic acid prop-2-ynylamide]
≤ 1000	C#CCNC(=O)c1csc(-c2c(-c3ccc(F)cc3)ncn2C2CCN(C(=O)CO)CC2)n1 [Example 94, 2-{5-(4-Fluoro-phenyl)-3-|1-(2-hydroxy-acetyl)-piperidin-4-yl|-3H-imidazol-4-yl}-thiazole-4-carboxylic acid prop-2-ynylamide]
≤ 1000	CC(C)NC(=O)c1csc(-c2[nH]c(N)nc2-c2ccc(F)cc2)n1 [Example 96, 2-|2-Amino-5-(4-fluoro-phenyl)-3H-imidazol-4-yl|-thiazole-4-carboxylic acid isopropylamide]
≤ 1000	CC(C)NC(=O)c1csc(-c2oc(CNC(=O)CC#N)nc2-c2ccc(F)cc2)n1 [Example 100]
≤ 1000	CC(C)NC(=O)c1csc(-c2oc(CNC(=O)C(C)O)nc2-c2ccc(F)cc2)n1 (centres unmarked) [Example 101]
≤ 1000	CCC(=O)C(=O)NCc1nc(-c2ccc(F)cc2)c(-c2nc(C(=O)NC(C)C)cs2)o1 [Example 102]
≤ 1000	CC(C)NC(=O)c1csc(-c2oc(CNC(=O)C(C)(C)C)nc2-c2ccc(F)cc2)n1 [Example 103]
≤ 1000	CC(C)CC(=O)NCc1nc(-c2ccc(F)cc2)c(-c2nc(C(=O)NC(C)C)cs2)o1 [Example 104]
≤ 1000	CC(C)NC(=O)c1csc(-c2oc(CNC(=O)c3cnc[nH]3)nc2-c2ccc(F)cc2)n1 [Example 105]
≤ 1000	CC(C)NC(=O)c1csc(-c2oc(CNC(=O)c3ncc[nH]3)nc2-c2ccc(F)cc2)n1 [Example 106]
≤ 1000	CC(C)NC(=O)c1csc(-c2oc(CNC(=O)C(F)(F)F)nc2-c2ccc(F)cc2)n1 [Example 108]
≤ 1000	CC(C)NC(=O)c1csc(-c2oc(CNC(=O)C3CCCO3)nc2-c2ccc(F)cc2)n1 (centres unmarked) [Example 109]
≤ 1000	CC(=O)NCC(=O)NCc1nc(-c2ccc(F)cc2)c(-c2nc(C(=O)NC(C)C)cs2)o1 [Example 110]
≤ 1000	CC(C)NC(=O)c1csc(-c2oc(CNC(=O)c3cccnc3)nc2-c2ccc(F)cc2)n1 [Example 112]
≤ 1000	CC(C)NC(=O)c1csc(-c2oc(CNC(=O)c3ccncc3)nc2-c2ccc(F)cc2)n1 [Example 113]
≤ 1000	CC(C)NC(=O)c1csc(-c2oc(CNC(=O)C(O)CCl)nc2-c2ccc(F)cc2)n1 (centres unmarked) [Example 115]
≤ 1000	Cc1cc(C(=O)NCc2nc(-c3ccc(F)cc3)c(-c3nc(C(=O)NC(C)C)cs3)o2)n[nH]1 [Example 116]
≤ 1000	CC(C)NC(=O)c1csc(-c2oc(CNC(=O)C3CCCCC3)nc2-c2ccc(F)cc2)n1 [Example 118]
≤ 1000	CC(C)NC(=O)c1csc(-c2oc(CNC(=O)c3cscn3)nc2-c2ccc(F)cc2)n1 [Example 119]
≤ 1000	CCOC(=O)CC(=O)NCc1nc(-c2ccc(F)cc2)c(-c2nc(C(=O)NC(C)C)cs2)o1 [Example 120]
≤ 1000	CC(C)NC(=O)c1csc(-c2oc(CNC(=O)c3cccc(O)c3)nc2-c2ccc(F)cc2)n1 [Example 124]
≤ 1000	CCCCCCCC(=O)NCc1nc(-c2ccc(F)cc2)c(-c2nc(C(=O)NC(C)C)cs2)o1 [Example 128]
≤ 1000	CC(C)NC(=O)c1csc(-c2oc(CNC(=O)c3ccc(C#N)cc3)nc2-c2ccc(F)cc2)n1 [Example 129]
